In US8536180B2, “Pyrimidine inhibitors of kinase activity” (AbbVie Inc., priority 2009, dated 2013):

Target: T1, C-terminal GST-tagged, recombinant, human IGF-1R, amino acids 954-1367 (Homo sapiens, UniProt P08069)
T1 construct: human IGF-1R, amino acids 954-1367 expressed by baculovirus in Sf21 cells; GST (C); purchased Cell Signaling Technology; host or cells: baculovirus in Sf21 cells
Assay: IGF-1R homogenous time-resolved fluorescence (HTRF) in vitro kinase assay
Assay type: biochemical
Details: IGF-1R kinase, ATP 50 μM final, biotinylated peptide substrate 0.5 μM, 60 minutes at room temperature

T1 sequence (P08069 954-1367): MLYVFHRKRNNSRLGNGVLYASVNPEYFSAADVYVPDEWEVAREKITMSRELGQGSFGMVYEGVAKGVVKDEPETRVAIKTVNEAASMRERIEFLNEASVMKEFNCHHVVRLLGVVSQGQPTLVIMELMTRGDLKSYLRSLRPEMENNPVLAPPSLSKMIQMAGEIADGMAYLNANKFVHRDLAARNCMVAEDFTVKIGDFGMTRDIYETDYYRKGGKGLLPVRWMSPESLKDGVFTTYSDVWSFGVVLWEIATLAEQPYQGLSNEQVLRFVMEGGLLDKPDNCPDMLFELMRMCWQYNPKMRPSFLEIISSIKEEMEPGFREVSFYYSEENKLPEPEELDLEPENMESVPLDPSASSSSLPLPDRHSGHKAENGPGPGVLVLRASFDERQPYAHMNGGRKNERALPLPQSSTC

IC50	Compound
< 10 nM	CN(C)CC(=O)Nc1cccc(Nc2nccc(-c3c(-c4ccc5nc(Cc6ccccc6)[nH]c5c4)nc4ccccn34)n2)c1 [Example 51, N^1-[3-({4-[2-(2-benzyl-1H-benzimidazol-6-yl)imidazo[1,2-a]pyridin-3-yl]pyrimidin-2-yl}amino)phenyl]-N^2,N^2-dimethylglycinamide]
10 to 50 nM	CN(C)CCc1cccc(Nc2nccc(-c3c(-c4ccc5nc(CCc6ccccc6)[nH]c5c4)nc4ccccn34)n2)c1 [Example 10, N-{3-[2-(dimethylamino)ethyl]phenyl}-4-{2-[2-(2-phenylethyl)-1H-benzimidazol-6-yl]imidazo[1,2-a]pyridin-3-yl}pyrimidin-2-amine]
10 to 50 nM	COc1ccccc1Nc1nccc(-c2c(-c3ccc4nc(Cc5ccccc5)[nH]c4c3)nc3sccn23)n1 [Example 24, 4-[6-(2-benzyl-1H-benzimidazol-6-yl)imidazo[2,1-b][1,3]thiazol-5-yl]-N-(2-methoxyphenyl)pyrimidin-2-amine]
< 10 nM	COc1cc(N2CCOCC2)ccc1Nc1nccc(-c2c(-c3ccc4nc(Cc5ccccc5)[nH]c4c3)nc3ccccn23)n1 [Example 14, 4-[2-(2-benzyl-1H-benzimidazol-6-yl)imidazo[1,2-a]pyridin-3-yl]-N-(2-methoxy-4-morpholin-4-ylphenyl)pyrimidin-2-amine]
< 10 nM	COc1cc(N2CCC(N(C)C)CC2)ccc1Nc1nccc(-c2c(-c3ccc4nc(Cc5ccccc5C)[nH]c4c3)nc3sccn23)n1 [Example 56, N-{4-[4-(dimethylamino)piperidin-1-yl]-2-methoxyphenyl}-4-{6-[2-(2-methylbenzyl)-1H-benzimidazol-6-yl]imidazo[2,1-b][1,3]thiazol-5-yl}pyrimidin-2-amine]
> 500 nM	Cn1cc(Nc2nccc(-c3c(-c4ccc5[nH]c(-c6ccccc6)nc5c4)nc4ccccn34)n2)cn1 [Example 44, N-(1-methyl-1H-pyrazol-4-yl)-4-[2-(2-phenyl-1H-benzimidazol-5-yl)imidazo[1,2-a]pyridin-3-yl]pyrimidin-2-amine]
